Experimental findings from patent US4341766A, “Deactivation of antibiotic-hydrolyzing enzymes” (priority 1980, dated 1982) are described below.

Like-named read-outs stand apart in the source and are kept apart here.

Assay [1] deals with T1, E. coli RTEM β-lactamase (Escherichia coli, UniProt P62593).
T1 construct: mature periplasmic enzyme
As to the kind of experiment: in vitro treatment of E. coli RTEM β-lactamase (deactivation). It counts as biochemical. The conditions noted are these: for turnovers before deactivation: number of molecules of compound needed to inactivate one β-lactamase molecule; for t1/2 for deactivation: in vitro, E. coli RTEM β-lactamase; for comparative efficacy as β-lactamase deactivating agent: in words, comparison of the four compounds of Table I.

Assay [2] deals with T1, E. coli RTEM β-lactamase. As to the kind of experiment: rate constant (kcat) of the corresponding N-acyl derivative of 6-aminopenicillanic acid as β-lactamase substrate. It counts as biochemical. The text has this: We believe the acyl-enzyme intermediates either deacylate (resulting in the undesirable restoration of the lactamase) or fragment (resulting in the desirable deactivation of the lactamase). […] This can be achieved by employing an N-acyl derivative of 6-aminopenicillanic acid sulfone in which the corresponding N-acyl derivative of 6-aminopenicillanic acid is a very poor substrate for β-lactamase. Since the rate constant (kcat) of an N-acyl derivative of 6-aminopenicillanic acid is a measure of its ability to act as a substrate, this constant provides the basis for defining the class of sulfones used in the invention.
Quinacillin sulfone's effectiveness is shown both by the low inactivation time, and by the low number of turnovers before inactivation (the low number of molecules of quinacillin sulfone needed to inactivate one β-lactamase molecule).

T1 sequence (P62593 24-286 limits assumed): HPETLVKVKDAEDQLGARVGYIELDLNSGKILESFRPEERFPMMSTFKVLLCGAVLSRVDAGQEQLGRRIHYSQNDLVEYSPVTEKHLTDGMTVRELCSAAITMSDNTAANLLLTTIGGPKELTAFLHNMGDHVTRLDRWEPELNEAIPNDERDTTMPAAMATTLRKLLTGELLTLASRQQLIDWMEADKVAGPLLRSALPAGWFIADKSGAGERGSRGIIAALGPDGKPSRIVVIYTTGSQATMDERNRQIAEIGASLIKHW

On to `CC1(C)[C@H](C(=O)O)N2C(=O)C[C@H]2S1(=O)=O` [CP-45, 899, 6-des-aminopenicillanic acid sulfone, reference compound], for which the turnovers before deactivation in assay [1] is 4,500. For the same molecule, in assay [2], the “kcat of corresponding N-acyl derivative of 6-aminopenicillanic acid” value was found to be 40 s⁻¹.
`Cc1onc(-c2ccccc2Cl)c1C(=O)N[C@@H]1C(=O)N2[C@@H](C(=O)O)C(C)(C)S(=O)(=O)[C@H]12` [cloxacillin sulfone]: in assay [1], the t1/2 for deactivation is listed as 1.5 min; the “comparative efficacy as β-lactamase deactivating agent” value (from here on “comparative efficacy”) was “effective deactivating agents, though less effective than quinacillin sulfone”; the turnovers before deactivation is listed as 17,000.
As to `COc1cccc(OC)c1C(=O)N[C@@H]1C(=O)N2[C@@H](C(=O)O)C(C)(C)S(=O)(=O)[C@H]12` [methicillin sulfone], in assay [1], the t1/2 for deactivation is ~ 1 min; the “comparative efficacy” value is listed as “effective deactivating agents, though less effective than quinacillin sulfone”; the turnovers before deactivation is 22,500.
For `CC1(C)[C@H](C(=O)O)N2C(=O)[C@@H](NC(=O)c3nc4ccccc4nc3C(=O)O)[C@H]2S1(=O)=O` [quinacillin sulfone], in assay [1], the t1/2 for deactivation is recorded as ~ 1 min, the “comparative efficacy” value is listed as “most effective of the four compounds listed” and the turnovers before deactivation worked out at 400.
Take `CC1(C)S[C@@H]2[C@H](NC(=O)c3nc4ccccc4nc3C(=O)O)C(=O)N2[C@H]1C(=O)O` [quinacillin]: the “kcat of corresponding N-acyl derivative of 6-aminopenicillanic acid” value in assay [2] (value belongs to the parent (non-sulfone) penicillin corresponding to the listed sulfone, substrate capability for β-lactamase) is recorded as “lowest kcat value”.
